Values joined by “and” are separate entries in the source; they are usually repeats but may differ in a detail not shown here. Equal entries are not always repeated.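 A five-concentration, 48-hour dose response in 96-well plates underlies each endpoint, interpolated linearly between surrounding concentrations. Here, GI50 denotes the concentration required for 50% inhibition of growth. TGI: concentration producing complete growth inhibition.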
Tests used:
Assay in all cases: growth of human tumour cells (NCI), 48 h
DU-145 prostate = tested on: DU-145 prostate
XF 498 CNS = tested on: XF 498 CNS
MDA-N = tested on: MDA-N
SNB-78 CNS = tested on: SNB-78 CNS
LXFL 529 NSCLC = tested on: LXFL 529 NSCLC
DMS 273 small cell lung = tested on: DMS 273 small cell lung
RXF-631 renal = tested on: RXF-631 renal
HS 578T breast = tested on: HS 578T breast

Structure (SMILES)	TGI (DU-145 prostate) [µM]	TGI (XF 498 CNS) [µM]	TGI (MDA-N) [µM]	TGI (SNB-78 CNS) [µM]	TGI (LXFL 529 NSCLC) [µM]	TGI (DMS 273 small cell lung) [µM]	TGI (RXF-631 renal) [µM]	GI50 (HS 578T breast)	TGI (HS 578T breast)
COC(=O)Nc1nc2ccc(C(=O)c3cccs3)cc2[nH]1	1.5	0.0934	2.57	> 63.1	18.6	> 100	> 61.8	0.0244 µM and 0.0882 µM	50.9 µM and > 100 µM
C#C[C@@H](CCCC)OC(=O)N[C@H](C)c1ccccc1	–	> 100	–	> 100	> 100	> 100	> 100	–	–
COC1CC(n2cc(F)c(N)nc2=O)OC1CO (stereo unspecified)	–	> 100	–	> 100	> 100	> 100	> 100	–	–
COc1ccc(/C=C2/CSC/C(=C/c3ccc(OC)c(OC)c3)C2=O)cc1OC	9.07	25.8	8.89	> 100	10.8	3.09	6.41	–	–
COc1cc(CCc2ccncc2)cc(OC)c1OC	–	> 100	–	> 100	> 100	> 100	> 100	–	–
C=CCCC(=O)CC(=O)OCc1ccccc1	–	> 100	–	> 100	> 100	> 100	> 100	–	–
CCN1CCC(O)(/C=C/c2ccccc2)C(C(=O)/C=C/c2ccccc2)C1 (stereo unspecified)	–	18.5	–	11.5	3.56	3.27	15	–	–
